Source: patent US10179780B2, “Azole benzene derivative and crystalline form thereof” (TEIJIN PHARMA LIMITED, priority 2014, dated 2019)

What was measured:
[1] = system: level of uric acid in the blood; experiment: Hypouricemic effect (normal rats), 2 hours after oral administration; settings: 2 hours after administration
Experimental: A test compound suspended in a 0.5% methylcellulose solution was administered to 8 to 9 week-old Sprague-Dawley male rats (Japan Charles River Co.) by oral gavage administration using a feeding needle. After the blood was collected from the tail vein at 2 hours after administration, the plasma was separated. The level of uric acid in the blood sample was measured by uricase method using an absorption spectrometer as well as a uric acid determination kit (L type Wako UA F: Wako Pure Chemical Industries, Ltd.). The percentage of hypouricemic effect was determined by the following expression: Percentage of hypouricemic effect (%)=(Level of uric acid of the control animal−Level of uric acid of the test compound-administered animal)×100/Level of uric acid of the control animal.

[2] = system: level of uric acid in the plasma; experiment: Hypouricemic effect (oxonic acid-induced hyperuricemic beagle dogs); format: in vivo; settings: hyperuricemic beagle dog, oral, 10 mg/kg, 8 hours after administration
Experimental: The hypouricemic effect was confirmed for the compounds (I) in oxonic acid-induced hyperuricmic beagle dog. […] Potassium oxonate (50 mg/kg) was subcutaneously administrated before and 4 hours after compound administration. After the blood was collected from the cephalic vein at 8 hours after administration, the plasma was separated. The level of uric acid in the plasma sample was measured by LC-MS/MS method and the percentage of hypouricemic effect was determined by the following expression: Percentage of hypouricemic effect (%)=(Level of uric acid of the control animal−Level of uric acid of the test compound-administered animal)×100/Level of uric acid of the control animal.

[3] = system: level of uric acid in the blood; experiment: Prolonged hypouricemic effect (normal rats), 24 hours after oral administration; format: in vivo, Sprague-Dawley male rats; settings: 24 hours after administration
Experimental: The crystal form A of the compound (II) was administered to Sprague-Dawley male rats in the similar manner as Example 5.
After the blood was collected from the tail vein 24 hours after administration, the plasma was separated. The level of uric acid in the blood was measured by an uricase method using an absorption spectrometer and a uric acid determination kit (L type Wako UA F: Wako Pure Chemical Industries, Ltd.). The percentage of hypouricemic effect was determined by the following expression: Percentage of hypouricemic effect=(Level of uric acid of the control animal−Level of uric acid of the test compound-administered animal)×100/Level of uric acid of the control animal.

[4] = Solubility into JP2 solution (pH 6.8); format: physicochemical
Experimental: The solubility of the compound (II) in JP2 solution (pH 6.8) was confirmed. A solution was prepared by mildly pulverizing the crystals A of the compound (II) in a mortar, and adding approximately 4 mg of the pulverized crystals to […] of JP2 solution while stirring at room temperature. The absorbance (At) of each solution at 280 nm was successively measured immediately after the addition of the crystals using an ultraviolet-visible absorbance measurement method and the solubility at each measurement time was determined by the following expression using the absorbance (As) of a standard solution at 280 mu determined in advance as an index. The measurement was continued until 120 minutes. Solubility=At/As×Cs (where Cs represents the concentration of a standard solution) • Measurement apparatus: μDISS Profiler manufactured by Pion Inc. • Stirring rate: 700 rpm • UV measurement wavelength: 280 nm • Measurement interval: Start of measurement to 1 minute: 3 seconds • 1 to 8 minutes: 20 seconds • 8 to 120 minutes: 2 minutes

| Precipitation / maintenance of dissolved state ([4]; JP2 solution pH 6.8, up to 120 minutes after the addition) | Time until total amount was dissolved ([4]; approximately 4 mg of pulverized crystals in JP2 solution pH 6.8, 700 rpm) [s] | solubility at 120 minutes ([4]; aqueous buffer, thermodynamic from solid, JP2 solution pH 6.8, room temperature, at 120 minutes after the addition) [µg/mL] | solubility at 30 seconds ([4]; aqueous buffer, thermodynamic from solid, JP2 solution pH 6.8, room temperature, total amount dissolved within 30 seconds after the addition) [µg/mL] | Structure (SMILES) | Percentage of hypouricemic effect ([1]; 1 mg/kg) [%] | Percentage of hypouricemic effect ([1]; 10 mg/kg) [%] | hypouricemic effect [2] | Percentage of hypouricemic effect ([3]; 3 mg/kg) [%] | Percentage of hypouricemic effect ([3]; 10 mg/kg) [%] |
| --- | --- | --- | --- | --- | --- | --- | --- | --- | --- |
| – | – | – | – | Cc1nc(-c2ccc(OCC(C)C)c(-n3cnnn3)c2)sc1C(=O)O [compound (I), 4-methyl-2-[4-(2-methylpropoxy)-3-(1H-1,2,3,4-tetrazol-1-yl)phenyl]-1,3-thiazole-5-carboxylic acid] | ≥ 50 | ≥ 50 | showed a hypouricemic effect | ≥ 40 | ≥ 50 |
| no precipitation was observed | ≤ 30 | 184 | 187 | Cc1nc(-c2ccc(OCC(C)C)c(-n3cnnn3)c2)sc1C(=O)[O-].[Na+] [compound (II), sodium 4-methyl-2-[4-(2-methylpropoxy)-3-(1H-1,2,3,4-tetrazol-1-yl)phenyl]-1,3-thiazole-5-carboxylate] | ≥ 50 | ≥ 50 | – | ≥ 40 | ≥ 50 |
